ChEMBL document CHEMBL1125342, “Condensation of muscimol or thiomuscimol with aminopyridazines yields GABA-A antagonists” (J Med Chem, 1992)

Key:
[1] = target: GABA-A receptor; anion channel; type: organism-based, Bos taurus, Brain
[2] = target: GABA-A receptor; anion channel; type: functional, tissue-based, Bos taurus, Brain

Row | SMILES | IC50 [1] [nM] | IC50 [2] [nM]
1 | Cc1cc(-c2ccccc2)c(=N)n(CCCC(=O)O)n1 | 10600 | –
2 | Cc1cc(-c2ccccc2)c(=N)n(Cc2cc(O)ns2)n1 | 6600 | 1000
3 | N=c1c2ccccc2c(-c2ccccc2)nn1Cc1cc(O)no1 | 120 | 190
4 | N=c1ccc(-c2ccc3c(c2)OCO3)nn1Cc1cc(O)ns1 | 17 | 0.76
5 | Cc1cc(-c2ccccc2)nn(CCCC(=O)O)c1=N | 2300 | –
6 | C[C@]12CC(=O)C3C(CC[C@@H]4C[C@H](O)CC[C@]34C)C1CC(=N)N2 (stereo partly drawn) | 43 | 3
7 | N=c1ccc(-c2ccsc2)nn1Cc1cc(O)no1 | 1600 | –
8 | NCc1cc(O)ns1 | 19 | –
9 | N=c1ccc(-c2ccccc2)nn1CCCC(=O)O | 1200 | –
10 | NCc1cc(=O)[nH]o1 [MUSCIMOL] | 2 | 135
11 | N=c1ccc(-c2ccsc2)nn1CCCC(=O)O | 2370 | –
12 | N=c1ccc(-c2ccc(Cl)cc2)nn1Cc1cc(O)ns1 | 150 | 29
13 | Cc1cc(-c2ccccc2)nn(Cc2cc(O)no2)c1=N | 1000 | –
14 | N=c1ccc(-c2ccc(Cl)cc2)nn1Cc1cc(O)no1 | 1200 | 80
15 | N=c1ccc(-c2ccc(Cl)cc2)nn1CCCC(=O)O | 280 | –
16 | O=C1OC=C2CCCNCC12 (stereo not drawn) | 56000 | –
17 | N=c1ccc(-c2ccc3c(c2)OCO3)nn1Cc1cc(O)no1 | 75 | 6
18 | N=c1c2ccccc2c(-c2ccccc2)nn1Cc1cc(O)ns1 | 160 | 25
19 | N=c1ccc(-c2ccc3c(c2)OCO3)nn1CCCC(=O)O | 50 | –
